Values of other authors, collected in patent publication US8790688B2, “Wound care device for local treatment of pain in a wound” (Coloplast A/S, priority 2001, dated 2014).

Conditions: reported lowest range for systemic effect

Row | plasma concentration for systemic effect in the lowest range [µg/mL] | Compound
1 | 3 | CC(C(=O)O)c1cccc(C(=O)c2ccccc2)c1 (stereo not shown) [Ketoprofen]
2 | 1 | CN1C(C(=O)Nc2ccccn2)=C(O)c2ccccc2S1(=O)=O [Piroxicam]
3 | 10 | CC(C)Cc1ccc(C(C)C(=O)O)cc1 (stereo not shown) [Ibuprofen]
4 | 270 | CC(=O)Oc1ccccc1C(=O)O [Acetylsalicylic acid]
